Laboratory results as given in patent publication US10905700B2, “Chemoprevention of colorectal cancer” (SOFAR SPA, priority 2012, dated 2021).

What was measured:
Format in all cases: cell-based
[1] = tested on: colorectal adenocarcinoma cell line HT29; assay: Growth curve (cell count every 24 hours) of cell line HT29; details: HT29, 96 hours of stimulation; 5-ASA 20 mM, VD3 10^-7 M, alone or combined; control 14 expansions
Method: The cell lines CaCo2 and HT29 of colorectal adenocarcinoma obtained from the ATCC (Rockville, Md., USA) were grown in a DMEM culture medium (Euroclone, Devon, UK), to which were added 10% foetal bovine serum (Lonza, Walkersville, Md., USA) inactivated at heat and 1 mM of L-glutamine (Euroclone). The 5-aminosalicylic acid (5-ASA, SOFAR S.p.A., Milan, Italy) and acetylsalicylic acid (ASA, Sigma Aldrich, St Louise, Mo., USA) were dissolved in a culture medium in a concentration of respectively 20 and 10 mM. […] The QRT-PCR was then carried out with an ABI PRISM 7900 (Applied Biosystems) sequence detecting system for quantifying the relative levels of mRNA measured in the various samples. […] The QRT-PCR signals were evacuated using the corresponding quantification method ΔΔ[…]. Relative gene expression data were analysed using real-time quantitative PCR and the 2(-Delta Delta C(T)) Method. […] The values obtained were expressed as a relative quantity (RQ) of the variation in the messenger levels. The colorectal adenocarcinoma cell line HT29, which was chosen for its responsiveness to the VD3 deriving from the corresponding VDR receptor, was subjected to “in vitro” treatment with 5-ASA 20 mM and VD3 10^-7 M, used individually and in association, in order to quantify the antiproliferative effect determined by the compounds analysed on cancerous colonocytes. […]

[2] = tested on: μ-protocadherin, E-cadherin, p21^waf1 and KLF4 messenger expression in HT29 cells; assay: QRT-PCR analysis of mRNA of genes regulating proliferation, differentiation and apoptosis in HT29 cells; details: HT29, 96 hours; 5-ASA 20 mM, VD3 10^-7 M, alone or combined; RQ vs calibrator, normalised on GAPDH
Method: The cell lines CaCo2 and HT29 of colorectal adenocarcinoma obtained from the ATCC (Rockville, Md., USA) were grown in a DMEM culture medium (Euroclone, Devon, UK), to which were added 10% foetal bovine serum (Lonza, Walkersville, Md., USA) inactivated at heat and 1 mM of L-glutamine (Euroclone). The 5-aminosalicylic acid (5-ASA, SOFAR S.p.A., Milan, Italy) and acetylsalicylic acid (ASA, Sigma Aldrich, St Louise, Mo., USA) were dissolved in a culture medium in a concentration of respectively 20 and 10 mM. The vitamin D3 (VD3) (1 alpha, 25 dihydroxyvitamin D3, calcitriol, Sigma Aldrich) was diluted in the culture medium at a concentration of 10^-7 M. For the experiments conducted with the cell line HT29, 300,000 cells were sown for each sample and 5-ASA, vitamin D3 or the combination of 5-ASA and VD3 were added to each well. For the experiments conducted with the cell line CaCo2, on the other hand, 300,000 cells were again sown for each sample, but adding 5-ASA or ASA to each well. The treated cells were then subjected to a cell count every 24 hours to monitor the anti-proliferation effect of the different stimuli. After 96 hours of treatment all the cells were collected, resorbed and the RNA was extracted by means of the “Qiagen total RNA purification kit” following the manufacturer's instructions (Qiagen, Valencia, Calif.). The integrity and concentration of the RNA were tested using the Bio-Analyzer technique (Applied Biosystem, Foster City, Calif.). 100 ng total of RNA were then retrotranscribed using the High Capacity cDNA Archive Kit (Applied Biosystems) on the basis of the instructions provided by the manufacturer. The QRT-PCR was then carried out with an ABI PRISM 7900 (Applied Biosystems) sequence detecting system for quantifying the relative levels of mRNA measured in the various samples. The triggers and probes for amplifying the mRNA of the μ-protocadherin, E-cadherin, p21^waf-1, KLF4 and glyceraldehyde 3-phosphate dehydrogenase (GAPDH) were devised by Applied Biosystems. Each sample of cDNA was processed in triplicate in 50 μl of reaction volume using the Taqman Universal PCR Master Mix (Applied Biosystems). Thermal cyclisation was started with initial denaturation at 50° C. for 2 minutes and at 90° C. for 10 minutes followed by 40 cycles of 15 seconds at 95° C. and 1 minute at 60° C. The QRT-PCR signals were evacuated using the corresponding quantification method ΔΔ[…]. Relative gene expression data were analysed using real-time quantitative PCR and the 2(-Delta Delta C(T)) Method. Methods 2001; 25(4):402-8). This procedure calculates the relative difference in gene expression of the target gene normalised on the endogen control (GAPDH) and compared with a calibrating sample. The values obtained were expressed as a relative quantity (RQ) of the variation in the messenger levels. In order to check at the molecular level the effects determined on the cell line HT29 by the association 5-ASA/VD3, “Real Time”, quantitative RT-PCR was used to analyse the expression of a series of genes the protein products of which are involved in the regulation of the proliferation, differentiation and apoptosis of cancer colonocytes such as μ-protocadherin, E-cadherin, p21^waf1 and KLF4. This analysis was conducted on cell cultures subjected to 96 hours of treatment with the studied drugs, which were used in the previously disclosed concentrations.

[3] = tested on: colorectal adenocarcinoma cell line CaCo2; assay: Growth curve (cell count) of cell line CaCo2 treated with 5-ASA and ASA; details: CaCo2, 96 hours; for cellularity "fold change" value / mortality / survival of treated cells: concentration of 20 mM of the analysed drugs
Method: (§1) The cell lines CaCo2 and HT29 of colorectal adenocarcinoma obtained from the ATCC (Rockville, Md., USA) were grown in a DMEM culture medium (Euroclone, Devon, UK), to which were added 10% foetal bovine serum (Lonza, Walkersville, Md., USA) inactivated at heat and 1 mM of L-glutamine (Euroclone). The 5-aminosalicylic acid (5-ASA, SOFAR S.p.A., Milan, Italy) and acetylsalicylic acid (ASA, Sigma Aldrich, St Louise, Mo., USA) were dissolved in a culture medium in a concentration of respectively 20 and 10 mM. The vitamin D3 (VD3) (1 alpha, 25 dihydroxyvitamin D3, calcitriol, Sigma Aldrich) was diluted in the culture medium at a concentration of 10^−7 M. For the experiments conducted with the cell line HT29, 300,000 cells were sown for each sample and 5-ASA, vitamin D3 or the combination of 5-ASA and VD3 were added to each well. For the experiments conducted with the cell line CaCo2, on the other hand, 300,000 cells were again sown for each sample, but adding 5-ASA or ASA to each well. The treated cells were then subjected to a cell count every 24 hours to monitor the anti-proliferation effect of the different stimuli. After 96 hours of treatment all the cells were collected, resorbed and the RNA was extracted by means of the “Qiagen total RNA purification kit” following the manufacturer's instructions (Qiagen, Valencia, Calif.). The integrity and concentration of the RNA were tested using the Bio-Analyzer technique (Applied Biosystem, Foster City, Calif.). 100 ng total of RNA were then retrotranscribed using the High Capacity cDNA Archive Kit (Applied Biosystems) on the basis of the instructions provided by the manufacturer. The QRT-PCR was then carried out with an ABI PRISM 7900 (Applied Biosystems) sequence detecting system for quantifying the relative levels of mRNA measured in the various samples. The triggers and probes for amplifying the mRNA of the μ-protocadherin, E-cadherin, p21^waf-1, KLF4 and glyceraldehyde 3-phosphate dehydrogenase (GAPDH) were devised by Applied Biosystems. Each sample of cDNA was processed in triplicate in 50 μl of reaction volume using the Taqman Universal PCR Master Mix (Applied Biosystems). Thermal cyclisation was started with initial denaturation at 50° C. for 2 minutes and at 90° C. for 10 minutes followed by 40 cycles of 15 seconds at 95° C. and 1 minute at 60° C. The QRT-PCR signals were evacuated using the corresponding quantification method ΔΔCt (Livak K J, Schmittgen T D. Relative gene expression data were analysed using real-time quantitative PCR and the 2(-Delta Delta C(T)) Method. Methods 2001; 25(4):402-8). This procedure calculates the relative difference in gene expression of the target gene normalised on the endogen control (GAPDH) and compared with a calibrating sample. The values obtained were expressed as a relative quantity (RQ) of the variation in the messenger levels.
In order to characterise further the profile of efficacy and safety associated with the chemopreventive properties of 5-ASA, a series of experiments was conducted of the same type as the series explained previously, in which a comparative analysis was conducted of the biological effects determined on cancer colonocytes following treatment with 5-ASA and with aspirin (ASA), i.e. the main drug of the family of NSAIDs. […]

[4] = tested on: μ-protocadherin, E-cadherin, p21^waf1 and KLF4 messenger expression in CaCo2 cells; assay: QRT-PCR analysis of mRNA of β-catenin signal pathway genes in CaCo2 cells; details: CaCo2, 96 hours; 5-ASA 20 mM, ASA 10 mM
Method: as §1
On the samples taken from these cell cultures and from other cultures used as a control, the levels of messenger RNA of the genes listed in the previous paragraph (see FIG. 2) was determined by Quantitative Real Time RT-PCR. The obtained results have shown that the messenger expression of the μ-protocadherin, E-cadherin, p21^waf1 and KLF4 genes were induced respectively 3.8, 2.4, 8.0 and 5.5 times after treatment with 5-ASA 20 mM (FIG. 4), confirming the data previously observed on the cell line HT29. […] This datum is not surprising, considering the redundancy and heterogeneity that characterise molecular regulation of the gene p21^waf1, the expression of which is not only regulated by the proliferation signalling pathway of the β chain, explored in our experimental conditions through the evaluation of the codifying genes for μ-protocadherin, E-cadherin and KLF4, but also by numerous signalling pathways.

Row | SMILES | number of cell expansions compared with the initial number of cells [1] | increase in messenger expression of E-cadherin [2] | increase in messenger expression of KLF-4 [2] | increase in messenger expression of p21 [2] | increase in messenger expression of μ-protocadherin [2] | cellularity "fold change" value [3] | mortality / survival of treated cells [3] | induction of messenger expression of E-cadherin [4] | induction of messenger expression of KLF4 [4] | induction of messenger expression of p21^waf1 [4] | induction of messenger expression of μ-protocadherin [4] | antiproliferative effect of ASA 10 mM compared with 5-ASA 20 mM ([3]; 10 mM ASA vs 20 mM 5-ASA (equivalents))
1 | Nc1ccc(O)c(C(=O)O)c1 [5-ASA, 5-aminosalicylic acid] | 8 expansions | 2.2 times | 2.2 times | 2.9 times | 2.5 times | 1 | all the cells treated with 5-ASA survive | 2.4 times | 5.5 times | 8.0 times | 3.8 times | –
2 | CC(=O)Oc1ccccc1C(=O)O [ASA, acetylsalicylic acid] | – | – | – | – | – | 0.2 | 80% | does not, on the other hand, induce | does not, on the other hand, induce | 5.8 times | does not, on the other hand, induce | absolutely superimposable antiproliferative effect
3 | C=C1/C(=C\C=C2/CCC[C@]3(C)[C@@H]([C@H](C)CCCC(C)(C)O)CC[C@@H]23)C[C@@H](O)C[C@@H]1O [VD3, 1 alpha, 25 dihydroxyvitamin D3] | 10 expansions | 1.7 times | 1.6 times | 1.5 times | 1 times | – | – | – | – | – | – | –
